Laboratory results taken from patent publication US20140357512A1, “HISTONE DEACETYLASE (HDAC) BIOMARKERS IN MULTIPLE MYELOMA” (priority 2013, published 2014).

System: human myeloma cell line MM.1S
Test: SILAC acetylated-lysine peptide profiling, HDAC inhibitor vs DMSO (light/heavy ratio)
Assay type: cell-based
Excerpt: An embodiment of the invention comprises utilizing the SILAC method in order to quantitate changes in protein expression between two or more populations of cells. The SILAC method is a technique based on mass spectrometry that detects differences in protein abundance among samples using non-radioactive isotopic labeling. The SILAC method is known in the art, and described in detail in Ong et al., “Stable Isotope Labeling by Amino Acids in Cell Culture, SILAC, as a Simple and Accurate Approach to Expression Proteomics”, Molecular & Cellular Proteomics, vol. 1, pp. 376-386 (2002), which is incorporated herein by reference in its entirety.
Briefly, the SILAC method involves growing two populations of cells in cell culture. The first population of cells is grown in growth media containing normal amino acids (“normal media”). The second population of cells is grown in media lacking a standard essential amino acid (such as lysine), but is then supplemented with a non-radioactive, isotopically labeled form of that essential amino acid (such as lysine labeled with ^13C atoms, rather than normal ^12C atoms), which is called “heavy media”. When the two populations of cells are each growing in the medium, they incorporate the amino acids into all of their proteins. The growth of cells maintained in the heavy media is no different from that in normal media. All peptides containing the heavy amino acids are heavier than their normal counterparts. The cells from each of the two populations of cells are lysed. The lysates from each of the two cell populations are then combined. The combined cell lysates are then analyzed by mass spectrometry. Pairs of chemically identical peptides of different stable isotope composition can be differentiated in a mass spectrometer due to their difference in mass. The ratio of peak intensities in the mass spectrum for such peptide pairs reflects the abundance ratio for the two proteins.
This example describes SILAC studies that were performed to compare the effects of three different HDAC inhibitors (Compound A, Compound B, and tubastatin A) to a control on a human multiple myeloma cell line. The HDAC inhibitors were also compared amongst themselves to determine differences in their effects.
A human myeloma cell line MM.1S was grown using either ^12C (light) or ^13C (heavy) lysine containing culture medium. The “heavy” cells were treated with DMSO as the control, and the “light” cells were treated with a single HDAC inhibitor at 37° C. for 6 hours. The heavy and light cells were lysed, and the lysates were mixed in 1:1 ratio and digested with the protease trypsin. The acetylated lysine containing peptides (due to the action of the HDAC inhibitor) in the digested peptide pool were captured by a non-specific anti-acetylated lysine antibody cocktail (the antibodies identify both light and heavy acetylated peptides), and subjected to mass spectrometry analysis in order to identify thousands of individual peptides.
Thousands of peptides were identified in pairs (^12C and ^13C) due to their known mass differences. The amino acid sequence and quantitative ratio (Light/Heavy) of a given peptide in two differentially treated cell lysates were then determined and annotated with their possible protein (gene) sources.
As stated above, three HDAC inhibitors (Compound A, Compound B, and Tubastatin A) were used. Thus, the SILAC method was performed three times, with a different HDAC inhibitor compared to a control each time. Accordingly, there are three pairs of quantitative data in the table below, i.e., Compound A:DMSO, Compound B:DMSO, and Tubastatin A:DMSO. A cut-off of 1.30 fold of change (increase or decrease) was then used to determine “changed” or “+” in the table, and any peptides with a fold of change less than 1.3 fold were determined to be “unchanged” or “0” in the table. Those peptides that were not identified were marked as “NA” in the table. […]

`O=C(CCCCCCNC(=O)c1cnc(N(c2ccccc2)c2ccccc2)nc1)NO` [Compound A, 2-(diphenylamino)-N-(7-(hydroxyamino)-7-oxoheptyl)pyrimidine-5-carboxamide] was tested, and the “light to heavy ratio (L/H ratio), log 2 scale, acetylated peptide VGDK(ac)[…] (SEQ ID NO: 773)” value (10 kDa heat shock protein mitochondrial [70], gene HSPE1, drug:DMSO) was 1.00, the “light to heavy ratio (L/H ratio) of acetylated peptide AGEATVK(ac)FLK (SEQ ID NO: 580)” value (39S ribosomal protein L9 mitochondrial [165], gene MRPL9, inhibitor:DMSO) was 0.43 log 2 and the “light to heavy ratio (L/H ratio) of acetylated peptide IQEVLK(ac)HAR (SEQ ID NO: 264)” value (39S ribosomal protein L20 mitochondrial [26], MRPL20, drug:DMSO) was 0.43 log 2. The “light to heavy ratio (L/H ratio) of acetylated peptide YIGK(ac)TMDYR (SEQ ID NO: 535)” value (39S ribosomal protein L24 mitochondrial [100], gene MRPL24, inhibitor:DMSO) was −0.39 log 2, the “light to heavy ratio (L/H ratio) of acetylated peptide FQK(ac)ELER (SEQ ID NO: 618)” value (39S ribosomal protein L44 mitochondrial [43], gene MRPL44, inhibitor:DMSO) was 0.48 log 2 and the “light to heavy ratio (L/H ratio) of acetylated peptide FK(ac)LITEDVQGK (SEQ ID NO: 287)” value (40S ribosomal protein S3a [85], SNORD73A, RPS3A, drug:DMSO) was 0.62 log 2. The “light to heavy ratio (L/H ratio) of acetylated peptide KDVHMPK(ac)HPELADK (SEQ ID NO: 353)” value (40S ribosomal protein S10 [31], RPS10, drug:DMSO) was 0.00 log 2, the “light to heavy ratio (L/H ratio), log 2 scale, acetylated peptide K(ac)FGGPGAR (SEQ ID NO: 768)” value (40S ribosomal protein S16 [131], gene RPS16, drug:DMSO) was 0.97 and the “light to heavy ratio (L/H ratio) of acetylated peptide NK(ac)[…] (SEQ ID NO: 559)” value (40S ribosomal protein S17 [49], gene RPS17, RPS17L, inhibitor:DMSO) was 0.40 log 2. The “light to heavy ratio (L/H ratio) of acetylated peptide ADGIVSK(ac)NF (SEQ ID NO: 599)” value (40S ribosomal protein S21 [81], gene RPS21, inhibitor:DMSO) was 0.46 log 2, the “light to heavy ratio (L/H ratio) of acetylated peptide GIVLEK(ac)VGVEAK (SEQ ID NO: 320)” value (40S ribosomal protein S23 [54], RPS23, drug:DMSO) was 1.00 log 2 and the “light to heavy ratio (L/H ratio), log 2 scale, acetylated peptide K(ac)FGQGSR (SEQ ID NO: 809)” value (40S ribosomal protein S29 [13], gene RPS29, drug:DMSO) was 1.00. The “light to heavy ratio (L/H ratio), log 2 scale, acetylated peptide ATWK(ac)SNYFLK (SEQ ID NO: 760)” value (60S acidic ribosomal protein P0 [10], gene RPLP0, drug:DMSO) was 0.91, the “light to heavy ratio (L/H ratio), log 2 scale, acetylated peptide ALEK(ac)IDLK (SEQ ID NO: 813)” value (60S ribosomal protein L3 [362], gene SNORD43, RPL3, drug:DMSO) was 1.00 and the “light to heavy ratio (L/H ratio) of acetylated peptide IPK(ac)HLTDAYFK (SEQ ID NO: 259)” value (60S ribosomal protein L6 [211], RPL6, drug:DMSO) was 0.40 log 2. For the same compound, the “light to heavy ratio (L/H ratio), log 2 scale, acetylated peptide AVDSQILPK(ac)IK (SEQ ID NO: 761)” value (60S ribosomal protein L6 [261], gene RPL6, drug:DMSO) was 0.92, the “light to heavy ratio (L/H ratio) of acetylated peptide HGYIK(ac)GIVK (SEQ ID NO: 556)” value (60S ribosomal protein L8 [42], gene RPL8, inhibitor:DMSO) was 0.40 log 2 and the “light to heavy ratio (L/H ratio) of acetylated peptide IDK(ac)PILK (SEQ ID NO: 506)” value (60S ribosomal protein L8 [177], gene RPL8, inhibitor:DMSO) was −0.65 log 2. The “light to heavy ratio (L/H ratio) of acetylated peptide GPLDK(ac)WR (SEQ ID NO: 622)” value (60S ribosomal protein L10-like [208], gene RPL10L, inhibitor:DMSO) was 0.48 log 2, the “light to heavy ratio (L/H ratio), log 2 scale, acetylated peptide YMVK(ac)SCGK (SEQ ID NO: 811)” value (60S ribosomal protein L10 [78], gene SNORA70, RPL10, drug:DMSO) was 1.00 and the “light to heavy ratio (L/H ratio), log 2 scale, acetylated peptide VDEVK(ac)STIK (SEQ ID NO: 805)” value (60S ribosomal protein L10a [152], gene RPL10A, drug:DMSO) was 1.00. For the same compound, the “light to heavy ratio (L/H ratio) of acetylated peptide VITEEEK(ac)NFK (SEQ ID NO: 522)” value (60S ribosomal protein L13 [174], gene RPL13, inhibitor:DMSO) was −0.46 log 2, the “light to heavy ratio (L/H ratio) of acetylated peptide LAAIVAK(ac)QVLLGR (SEQ ID NO: 505)” value (60S ribosomal protein L13a [25], gene SNORD32A, RPL13A, SNORD33, SNORD34, inhibitor:DMSO) was −0.67 log 2 and the “light to heavy ratio (L/H ratio) of acetylated peptide K(ac)FAYLGR (SEQ ID NO: 614)” value (60S ribosomal protein L13a [134], gene SNORD32A, RPL13A, SNORD33, SNORD34, inhibitor:DMSO) was 0.47 log 2. The “light to heavy ratio (L/H ratio), log 2 scale, acetylated peptide LAHEVGWK(ac)[…] (SEQ ID NO: 812)” value (60S ribosomal protein L13a [148], gene SNORD32A, RPL13A, SNORD33, SNORD34, drug:DMSO) was 1.00, the “light to heavy ratio (L/H ratio) of acetylated peptide […](ac)PVHK (SEQ ID NO: 581)” value (60S ribosomal protein L15 [153], gene RPL15, inhibitor:DMSO) was 0.43 log 2 and the “light to heavy ratio (L/H ratio) of acetylated peptide GHK(ac)FHHTIGGSR (SEQ ID NO: 519)” value (60S ribosomal protein L15 [179], gene RPL15, inhibitor:DMSO) was −0.51 log 2. For the same compound, the “light to heavy ratio (L/H ratio), log 2 scale, acetylated peptide SFVK(ac)[…] (SEQ ID NO: 770)” value (60S ribosomal protein L27 [73], gene RPL27, drug:DMSO) was 0.99, the “light to heavy ratio (L/H ratio), log 2 scale, acetylated peptide YSVDIPLDK(ac)TVVNK (SEQ ID NO: 807)” value (60S ribosomal protein L27 [93], gene RPL27, drug:DMSO) was 1.00 and the “light to heavy ratio (L/H ratio), log 2 scale, acetylated peptide TVVNK(ac)DVFR (SEQ ID NO: 766)” value (60S ribosomal protein L27 [98], gene RPL27, drug:DMSO) was 0.94. For the same compound, the “light to heavy ratio (L/H ratio) of acetylated peptide NCSSFLIK(ac)R (SEQ ID NO: 558)” value (60S ribosomal protein L28 [19], gene RPL28, inhibitor:DMSO) was 0.40 log 2, the “light to heavy ratio (L/H ratio) of acetylated peptide IHGVGFK(ac)K (SEQ ID NO: 542)” value (60S ribosomal protein L31 [39], gene RPL31, inhibitor:DMSO) was 0.39 log 2 and the “light to heavy ratio (L/H ratio), log 2 scale, acetylated peptide LNK(ac)AVWAK (SEQ ID NO: 808)” value (60S ribosomal protein L31 [70], gene RPL31, drug:DMSO) was 1.00. For the same compound, the “light to heavy ratio (L/H ratio) of acetylated peptide […](ac)ENLR (SEQ ID NO: 610)” value (60S ribosomal protein L35 [66], gene RPL35, inhibitor:DMSO) was 0.47 log 2 and the “light to heavy ratio (L/H ratio) of acetylated peptide LWSK(ac)AIFAGYK (SEQ ID NO: 538)” value (60S ribosomal protein L35a [8], gene RPL35A, inhibitor:DMSO) was 0.38 log 2.
